Data: ChEMBL document CHEMBL6092159, “Design, synthesis, and biological evaluation of novel iNOS inhibitors as potent neuroprotective agents for ischemic stroke” (Eur J Med Chem, 2024)
≈ marks a conversion by molar mass, not a printed value. Calls of active or inactive are those of the source. The rule behind the calls is not given here.

Legend:
SH-SY5Y [1] = test: Neuroprotective effect in human SH-SY5Y cells assessed as reduction in OGD/R-induced damage by measuring increase in cell viability at 10 uM incubated for 3 hrs followed by washout cells cultured in glucose and FBS-free medium measured after 24 hrs by CCK8 assay; format: functional, cell-based
[2] = target: Nitric oxide synthase, inducible (Homo sapiens, UniProt P35228); test: Inhibition of iNOS (unknown origin) assessed as nitric oxide production at 1 uM by hemoglobin capture assay
Sequence of Nitric oxide synthase, inducible (P35228 whole entry, the tested form may be a part): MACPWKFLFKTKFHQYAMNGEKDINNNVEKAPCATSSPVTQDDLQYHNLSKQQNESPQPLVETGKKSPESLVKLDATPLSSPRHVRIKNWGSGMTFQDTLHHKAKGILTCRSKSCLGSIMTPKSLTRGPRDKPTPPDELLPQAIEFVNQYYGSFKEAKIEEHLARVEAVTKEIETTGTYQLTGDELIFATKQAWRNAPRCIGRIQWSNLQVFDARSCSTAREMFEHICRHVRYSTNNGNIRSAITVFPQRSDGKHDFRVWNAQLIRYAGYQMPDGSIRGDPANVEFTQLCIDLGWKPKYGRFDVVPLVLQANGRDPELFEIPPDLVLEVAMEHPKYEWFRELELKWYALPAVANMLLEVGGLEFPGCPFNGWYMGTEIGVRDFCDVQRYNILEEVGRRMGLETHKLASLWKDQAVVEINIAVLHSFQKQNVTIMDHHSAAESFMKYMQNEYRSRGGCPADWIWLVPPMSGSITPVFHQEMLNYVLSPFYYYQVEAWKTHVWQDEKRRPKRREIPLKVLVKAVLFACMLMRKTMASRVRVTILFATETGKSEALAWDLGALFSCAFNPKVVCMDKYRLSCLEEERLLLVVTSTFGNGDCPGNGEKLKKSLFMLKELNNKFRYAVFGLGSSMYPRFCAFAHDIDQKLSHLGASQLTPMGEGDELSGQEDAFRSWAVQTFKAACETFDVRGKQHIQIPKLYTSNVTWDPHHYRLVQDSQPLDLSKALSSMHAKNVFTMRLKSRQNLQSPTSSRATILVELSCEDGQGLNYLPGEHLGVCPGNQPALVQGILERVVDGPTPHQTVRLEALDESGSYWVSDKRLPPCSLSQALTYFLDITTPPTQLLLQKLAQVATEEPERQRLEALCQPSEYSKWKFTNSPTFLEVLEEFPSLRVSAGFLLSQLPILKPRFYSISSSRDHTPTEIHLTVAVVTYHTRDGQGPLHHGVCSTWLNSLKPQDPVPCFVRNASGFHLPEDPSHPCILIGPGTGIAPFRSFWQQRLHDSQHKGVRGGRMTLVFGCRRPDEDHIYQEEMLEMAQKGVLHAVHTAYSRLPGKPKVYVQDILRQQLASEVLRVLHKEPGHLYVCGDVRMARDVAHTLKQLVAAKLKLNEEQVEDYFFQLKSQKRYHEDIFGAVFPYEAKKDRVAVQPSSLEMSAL

Rattus norvegicus [3] = test: Anti-cerebral ischemia activity in rat tMCAO (transient middle cerebral artery occlusion) model assessed as reduction in cerebral infarct area in presence of 1400W at 5 mg/kg, iv treated after 2 hrs ischemia followed by reperfusion measured after 24 hrs of post-reperfusion by single-dose experiment; format: functional, organism-based; conditions: time 26.0 hrs
Rattus norvegicus [4] = test: Anti-cerebral ischemia activity in rat tMCAO (transient middle cerebral artery occlusion) model assessed as reduction in cerebral infarct area at 5 mg/kg, iv treated after 2 hrs ischemia followed by reperfusion measured after 24 hrs of post-reperfusion by single-dose experiment; format: functional, organism-based; conditions: time 26.0 hrs
SH-SY5Y [5] = test: […] effect in human SH-SY5Y cells assessed as reduction in OGD/R-induced caspase-3 activity using substrate GreenNuc Caspase-3 Substrate is a peptide DEVD coupled with a DNA green fluorescent dye at 1 uM incubated for 3 hrs followed by washout cells cultured in glucose and FBS-free medium measured after 24 hrs by […] assay; format: functional, cell-based
[6] = Solubility of the compound by HPLC based dissolution test; format: physicochemical
Rattus norvegicus [7] = test: Anti-cerebral ischemia activity in rat tMCAO (transient middle cerebral artery occlusion) model assessed as reduction in cerebral infarct area at 5 mg/kg, iv treated after 2 hrs ischemia followed by reperfusion measured after 24 to 72 hrs of post-reperfusion by TTC staining based multiple-dose experiment; format: functional, organism-based; conditions: time 26-74 hrs
SH-SY5Y [8] = test: Antioxidant activity in human SH-SY5Y cells assessed as reduction in OGD/R-induced ROS level at 1 uM incubated for 3 hrs followed by washout cells cultured in glucose and FBS-free medium measured after 24 hrs by DCFH-DA probe based fluorescence microscopy assay; format: functional, cell-based
SH-SY5Y [9] = test: Antioxidant activity in human SH-SY5Y cells assessed as reduction in OGD/R-induced LDH level at 1 uM incubated for 3 hrs followed by washout cells cultured in glucose and FBS-free medium measured after 24 hrs by colorimetric assay; format: functional, cell-based
SH-SY5Y [10] = test: Neuroprotective effect in human SH-SY5Y cells assessed as reduction in OGD/R-induced damage by measuring increase in cell viability at 1 uM incubated for 3 hrs followed by washout cells cultured in glucose and FBS-free medium measured after 24 hrs by CCK8 assay; format: functional, cell-based
BV-2 = test: Neuroprotective effect in mouse BV-2 cells assessed as reduction in OGD/R-induced damage by measuring increase in cell viability at 10 uM incubated for 3 hrs followed by washout cells cultured in glucose and FBS-free medium measured after 24 hrs by CCK8 assay; format: functional, cell-based
Rattus norvegicus [11] = test: Anti-cerebral ischemia activity in rat tMCAO (transient middle cerebral artery occlusion) model assessed as reduction in cerebral infarct area at 9.98 mg/kg, iv treated after 2 hrs ischemia followed by reperfusion measured after 24 hrs of post-reperfusion by single-dose experiment; format: functional, organism-based; conditions: time 26.0 hrs
[12] = Tmax in Sprague-Dawley rat at 10 mg/kg, iv measured after 24 hrs by LC-MS/MS analysis; format: ADME, organism-based; conditions: in vivo
[13] = Apparent volume of distribution in Sprague-Dawley rat at 10 mg/kg, iv measured after 24 hrs by LC-MS/MS analysis; format: ADME, organism-based; conditions: in vivo, read-out: Vz
[14] = Clearance in Sprague-Dawley rat at 10 mg/kg, iv measured after 24 hrs by LC-MS/MS analysis; format: ADME, organism-based; conditions: in vivo
[15] = MRT (0 to t) in Sprague-Dawley rat at 10 mg/kg, iv measured after 24 hrs by LC-MS/MS analysis; format: ADME, organism-based; conditions: in vivo
[16] = MRT (0 to infinity) in Sprague-Dawley rat at 10 mg/kg, iv measured after 24 hrs by LC-MS/MS analysis; format: ADME, organism-based; conditions: in vivo
Rattus norvegicus [17] = test: Anti-cerebral ischemia activity in rat tMCAO (transient middle cerebral artery occlusion) model assessed as reduction in cerebral infarct area in presence of NBP at 6.58 mg/kg, iv treated after 2 hrs ischemia followed by reperfusion measured after 24 hrs of post-reperfusion by single-dose experiment; format: functional, organism-based; conditions: time 26.0 hrs
Rattus norvegicus [18] = test: Anti-cerebral ischemia activity in rat tMCAO (transient middle cerebral artery occlusion) model assessed as reduction in cerebral infarct area at 6.58 mg/kg, iv treated after 2 hrs ischemia followed by reperfusion measured after 24 hrs of post-reperfusion by single-dose experiment; format: functional, organism-based; conditions: time 26.0 hrs
[19] = Ratio of drug concentration male Sprague-Dawley rat brain to blood at 3.4 mg/kg, iv measured after 24 hrs by LC-MS/MS analysis; format: ADME, organism-based
[20] = target: T1, Nitric oxide synthase 3 (Homo sapiens) (UniProt P29474); test: Inhibition of eNOS (unknown origin) assessed as nitric oxide production 1 uM by hemoglobin capture assay
T1 sequence (whole entry): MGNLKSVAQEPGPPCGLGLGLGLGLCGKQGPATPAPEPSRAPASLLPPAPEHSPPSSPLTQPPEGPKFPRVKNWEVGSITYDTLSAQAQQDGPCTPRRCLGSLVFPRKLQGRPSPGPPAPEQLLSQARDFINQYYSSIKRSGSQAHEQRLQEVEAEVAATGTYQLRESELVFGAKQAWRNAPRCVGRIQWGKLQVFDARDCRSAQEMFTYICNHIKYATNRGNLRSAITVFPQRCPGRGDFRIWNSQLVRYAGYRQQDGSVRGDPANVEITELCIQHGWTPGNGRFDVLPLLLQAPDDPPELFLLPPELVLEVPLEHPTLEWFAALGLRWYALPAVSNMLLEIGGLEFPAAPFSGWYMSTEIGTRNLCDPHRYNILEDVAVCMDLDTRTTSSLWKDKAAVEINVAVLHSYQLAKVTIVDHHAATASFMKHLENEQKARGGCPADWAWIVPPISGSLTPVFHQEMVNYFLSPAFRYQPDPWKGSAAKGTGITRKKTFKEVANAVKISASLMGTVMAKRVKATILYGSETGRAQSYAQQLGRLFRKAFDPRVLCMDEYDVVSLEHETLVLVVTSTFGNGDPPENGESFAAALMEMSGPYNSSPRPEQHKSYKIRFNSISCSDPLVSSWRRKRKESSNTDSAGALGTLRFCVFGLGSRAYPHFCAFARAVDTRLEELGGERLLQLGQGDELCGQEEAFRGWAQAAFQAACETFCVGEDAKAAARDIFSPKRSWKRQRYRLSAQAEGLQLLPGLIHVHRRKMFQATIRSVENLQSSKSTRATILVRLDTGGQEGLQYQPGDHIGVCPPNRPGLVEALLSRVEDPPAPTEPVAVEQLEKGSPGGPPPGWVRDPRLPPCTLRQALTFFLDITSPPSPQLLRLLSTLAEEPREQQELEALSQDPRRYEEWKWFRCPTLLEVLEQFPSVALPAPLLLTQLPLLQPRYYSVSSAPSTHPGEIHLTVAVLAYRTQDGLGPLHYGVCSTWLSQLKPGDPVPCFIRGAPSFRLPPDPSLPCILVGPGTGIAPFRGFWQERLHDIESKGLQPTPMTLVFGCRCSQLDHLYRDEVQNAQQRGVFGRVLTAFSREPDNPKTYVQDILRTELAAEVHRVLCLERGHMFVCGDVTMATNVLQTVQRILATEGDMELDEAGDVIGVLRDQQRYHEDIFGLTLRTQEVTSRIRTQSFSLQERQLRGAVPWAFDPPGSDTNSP

[21] = Ratio of drug concentration male Sprague-Dawley rat brain to blood at 5 mg/kg, iv measured after 24 hrs by LC-MS/MS analysis; format: ADME, organism-based
Rattus norvegicus [22] = test: Anti-cerebral ischemia activity in rat tMCAO (transient middle cerebral artery occlusion) model assessed as reduction in cerebral infarct area at 9.61 mg/kg, iv treated after 2 hrs ischemia followed by reperfusion measured after 24 hrs of post-reperfusion by measuring modified neurological severity score (mNSS) test based multiple-dose experiment relative to MCAO group; format: functional, organism-based
[23] = Metabolic stability in rat liver microsomes assessed as half life; format: ADME, Microsome
[24] = Half life in Sprague-Dawley rat at 10 mg/kg, iv measured after 24 hrs by LC-MS/MS analysis; format: ADME, organism-based; conditions: in vivo
Rattus norvegicus [25] = test: Anti-cerebral ischemia activity in rat tMCAO (transient middle cerebral artery occlusion) model assessed as reduction in cerebral infarct area at 9.61 mg/kg, iv treated after 2 hrs ischemia followed by reperfusion measured after 24 hrs of post-reperfusion by measuring turn left counts test based multiple-dose experiment relative to MCAO group; format: functional, organism-based
Rattus norvegicus [26] = test: Anti-cerebral ischemia activity in rat tMCAO (transient middle cerebral artery occlusion) model assessed as reduction in cerebral infarct area at 9.61 mg/kg, iv treated after 2 hrs ischemia followed by reperfusion measured after 24 hrs of post-reperfusion by single-dose experiment; format: functional, organism-based; conditions: time 26.0 hrs
[27] = target: Nitric oxide synthase 1 (Homo sapiens) (UniProt P29475); test: Inhibition of nNOS (unknown origin) assessed as nitric oxide production 1 uM by hemoglobin capture assay
Sequence of Nitric oxide synthase 1 (Homo sapiens) (P29475 whole entry): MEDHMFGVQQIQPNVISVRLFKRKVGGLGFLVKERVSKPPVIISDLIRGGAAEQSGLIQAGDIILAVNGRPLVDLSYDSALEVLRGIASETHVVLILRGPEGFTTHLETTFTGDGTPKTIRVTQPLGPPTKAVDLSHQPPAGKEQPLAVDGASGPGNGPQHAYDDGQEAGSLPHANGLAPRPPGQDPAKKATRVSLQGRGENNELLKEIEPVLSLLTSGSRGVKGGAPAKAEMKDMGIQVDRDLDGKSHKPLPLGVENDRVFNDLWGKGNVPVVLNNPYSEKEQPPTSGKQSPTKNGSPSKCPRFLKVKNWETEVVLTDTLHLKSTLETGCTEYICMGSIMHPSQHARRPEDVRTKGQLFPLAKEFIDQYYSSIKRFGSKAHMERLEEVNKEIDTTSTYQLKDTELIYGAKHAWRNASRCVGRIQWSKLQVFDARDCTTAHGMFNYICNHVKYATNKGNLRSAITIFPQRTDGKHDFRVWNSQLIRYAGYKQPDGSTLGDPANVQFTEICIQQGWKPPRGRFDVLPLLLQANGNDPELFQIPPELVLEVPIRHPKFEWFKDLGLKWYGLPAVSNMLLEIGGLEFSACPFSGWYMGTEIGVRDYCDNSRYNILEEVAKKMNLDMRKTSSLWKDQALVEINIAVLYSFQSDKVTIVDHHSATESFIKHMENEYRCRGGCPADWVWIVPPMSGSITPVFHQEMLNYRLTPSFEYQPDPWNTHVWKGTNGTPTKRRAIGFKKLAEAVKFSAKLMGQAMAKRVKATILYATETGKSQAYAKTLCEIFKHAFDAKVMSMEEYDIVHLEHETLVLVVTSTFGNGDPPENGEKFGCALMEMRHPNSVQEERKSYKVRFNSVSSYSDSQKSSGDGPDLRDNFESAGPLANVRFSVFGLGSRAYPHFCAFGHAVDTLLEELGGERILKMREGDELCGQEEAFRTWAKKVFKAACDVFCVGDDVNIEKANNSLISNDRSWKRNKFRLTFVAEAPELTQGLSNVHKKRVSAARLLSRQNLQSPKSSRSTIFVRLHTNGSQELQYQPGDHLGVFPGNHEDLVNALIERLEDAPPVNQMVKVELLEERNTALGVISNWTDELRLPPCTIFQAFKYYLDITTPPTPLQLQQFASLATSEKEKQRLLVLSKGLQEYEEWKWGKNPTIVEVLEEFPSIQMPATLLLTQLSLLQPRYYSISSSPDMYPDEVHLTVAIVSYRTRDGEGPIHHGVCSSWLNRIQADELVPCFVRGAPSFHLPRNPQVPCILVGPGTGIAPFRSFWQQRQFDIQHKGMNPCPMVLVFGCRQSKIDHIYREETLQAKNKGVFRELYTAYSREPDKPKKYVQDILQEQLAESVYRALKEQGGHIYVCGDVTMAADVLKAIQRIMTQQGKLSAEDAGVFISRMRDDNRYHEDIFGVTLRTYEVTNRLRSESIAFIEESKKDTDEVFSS

[28] = Stability in rat plasma assessed as half life; format: ADME, cell-free
Rattus norvegicus [29] = test: Anti-cerebral ischemia activity in rat tMCAO (transient middle cerebral artery occlusion) model assessed as reduction in cerebral infarct area at 9.61 mg/kg, iv treated after 2 hrs ischemia followed by reperfusion measured after 72 hrs of post-reperfusion by measuring modified neurological severity score (mNSS) test based multiple-dose experiment relative to MCAO group; format: functional, organism-based
Rattus norvegicus [30] = test: Anti-cerebral ischemia activity in rat tMCAO (transient middle cerebral artery occlusion) model assessed as reduction in cerebral infarct area at 9.61 mg/kg, iv treated after 2 hrs ischemia followed by reperfusion measured after 72 hrs of post-reperfusion by measuring turn left counts test based multiple-dose experiment relative to MCAO group; format: functional, organism-based
Rattus norvegicus [31] = test: Anti-cerebral ischemia activity in rat tMCAO (transient middle cerebral artery occlusion) model assessed as reduction in cerebral infarct area at 9.61 mg/kg, iv treated after 2 hrs ischemia followed by reperfusion measured after 24 to 72 hrs of post-reperfusion by TTC staining based multiple-dose experiment; format: functional, organism-based; conditions: time 26-74 hrs

Compound	Activity (SH-SY5Y [1])	IC50 [2] [nM]	Activity (SH-SY5Y [5])	solubility [6] [mg/mL]	Activity (SH-SY5Y [8])	Activity (SH-SY5Y [9])	Activity (SH-SY5Y [10])	Activity (BV-2)	Tmax [12] [min]	Vd [13] [L/kg]	CL [14] [mL/min/kg]	MRT last at 24 h [15] [h]	MRT inf [16] [h]	Activity [20]	other results
CCCCC1OC(=O)c2cc(NCc3cccc(NC(C)=N)c3)ccc21 (centres undefined)	Active	275	–	–	–	–	–	–	–	–	–	–	–	–	–
CCCCC1OC(=O)c2cc(NC(=O)c3cccc(NC(C)=N)c3)ccc21 (centres undefined)	Active	474	–	–	–	–	–	–	–	–	–	–	–	–	–
CCCCC1OC(=O)c2ccccc21 (racemic) [RAC-3-N-BUTYLPHTHALIDE]	–	–	Active	0.25 (≈ 1.31 mM)	Active	Active	–	–	–	–	–	–	–	–	Activity (Rattus norvegicus [3]): Active; Activity (Rattus norvegicus [4]): Active; Activity (Rattus norvegicus [7]): Active
CCCCC1OC(=O)c2cc(NC(=O)c3cccc(CNC(C)=N)c3)ccc21 (centres undefined)	Active	245	–	–	–	Active	Active; Compound Demonstrating Comparable Protective Effects To Nbp And 1400W	Active; Compound Exhibit Similar Protective Effects As Nbp And 1400W	–	–	–	–	–	–	Activity (Rattus norvegicus [11]): Active
CC(=N)NCc1cccc(CN)c1 [1400W]	–	–	Active	–	Active	Active	–	–	4.98	21.7	90.12	0.96	1.11	inactive	Activity (Rattus norvegicus [17]): Active; Activity (Rattus norvegicus [18]): Active; BBR [19]: 10.96%
CCCCC1OC(=O)c2cc(NCc3cccc(CNC(C)=N)c3)ccc21 (centres undefined)	Active	171	Active	30 (≈ 82.1 mM)	Active	Active	Active; Compound Demonstrating Comparable Protective Effects To Nbp And 1400W	Active; Compound Exhibit Similar Protective Effects As Nbp And 1400W	4.98	32.4	71.33	1.62	1.91	inactive	BBR [21]: 27.36%; Activity (Rattus norvegicus [22]): Active; half-life [23]: 120 min; half-life [24]: 313 min; Activity (Rattus norvegicus [25]): Active; Activity (Rattus norvegicus [26]): Active; inhibition [27]: 3.64%; half-life [28]: 1380 min; Activity (Rattus norvegicus [29]): Active; Activity (Rattus norvegicus [30]): Active; Activity (Rattus norvegicus [31]): Active; Efficacy Of Compound Superior Than Nbp Group
